Consider 19 compounds from patent US10385108B2, “Peptide analogs of alpha-melanocyte stimulating hormone” (Genzyme Corporation, priority 2008, dated 2019).

Structures are written as SMILES. Where a SMILES comes first, the peptide text is derived from it. [ ]: non-standard residue; d: D form. The star is where a group is joined. X1 = CCCCCCCCCCCCCCCCCC(=O)NCCCCCCN*; dBta = N[C@H](Cc1csc2ccccc12)C(=O)O; d3Pal = N[C@H](Cc1cccnc1)C(=O)O; d2Thi = N[C@H](Cc1cccs1)C(=O)O; NH(CH2)3Ph = c1ccc(CCCN*)cc1; dNle = CCCC[C@@H](N)C(=O)O

In the first test the target is MC1R (Homo sapiens, UniProt Q01726). In words: Competitive binding with 125I-NDP-MSH, HEK293 membrane preparations, MC1R.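 Also: Read-out: receptor-bound radioligand retained by filtration and counted.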
Chain of MC1R (Q01726 whole entry): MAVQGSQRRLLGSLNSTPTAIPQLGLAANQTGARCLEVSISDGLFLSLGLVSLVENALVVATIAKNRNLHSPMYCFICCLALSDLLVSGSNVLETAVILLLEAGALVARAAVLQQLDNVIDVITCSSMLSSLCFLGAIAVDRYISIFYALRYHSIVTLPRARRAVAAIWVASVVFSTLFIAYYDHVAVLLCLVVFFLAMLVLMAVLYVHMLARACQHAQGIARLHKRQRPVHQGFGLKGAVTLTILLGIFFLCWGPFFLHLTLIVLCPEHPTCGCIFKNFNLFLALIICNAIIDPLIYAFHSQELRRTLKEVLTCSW
Conditions: not given
As for `CC(C)[C@@H](N)C(=O)N1CCC[C@@H]1C(=O)N[C@H](CCCCN)C(=O)NCC(=O)N[C@H](Cc1c[nH]c2ccccc12)C(=O)N[C@H](CCCNC(=N)N)C(=O)N[C@H](Cc1ccccc1)C(=O)N[C@H](Cc1c[nH]cn1)C(=O)NCCCc1ccccc1` [compound 847, vpkGwrfh] (H-[dV][dP][dK]G[dW][dR][dF][dH]-{NH(CH2)3Ph}), the “affinity for MC1R compared with parent peptide (in words)” value is reported as “no increase in the affinity”.

The test is the same for the next values; noted with them: Ki MC1R, competition with 125I-NDP-MSH.
Consider `CC(C)[C@@H](N)C(=O)N1CCC[C@@H]1C(=O)N[C@H](CCCCN)C(=O)NCC(=O)N[C@H](Cc1c[nH]c2ccccc12)C(=O)N[C@H](CCCNC(=N)N)C(=O)N[C@H](Cc1ccccc1)C(=O)N[C@H](Cc1c[nH]cn1)C(=O)O` [847int, vpkGwrfh] (H-[dV][dP][dK]G[dW][dR][dF][dH]-OH), for which the affinity, expressed as Ki, was 150 nM.
The same measure, in the same setting: then `CSCC[C@@H](NC(=O)[C@@H](CCC(=O)O)NC(=O)[C@@H](Cc1c[nH]cn1)NC(=O)[C@@H](Cc1ccccc1)NC(=O)[C@@H](CCCNC(=N)N)NC(=O)[C@@H](Cc1ccccc1)NC(=O)CNC(=O)[C@@H](CCCCN)NC(=O)[C@H]1CCCN1C(=O)[C@H](NC(C)=O)C(C)C)C(=O)N[C@H](CO)C(=O)N[C@H](Cc1ccc(O)cc1)C(=O)N[C@H](CO)C(N)=O` [862-b, vpkGfrfhemsys] (Ac-[dV][dP][dK]G[dF][dR][dF][dH][dE][dM][dS][dY][dS]-NH2), with 128 nM; and `CSCC[C@@H](NC(=O)[C@@H](C)NC(=O)[C@@H](Cc1c[nH]cn1)NC(=O)[C@@H](Cc1ccccc1)NC(=O)[C@@H](CCCNC(=N)N)NC(=O)[C@@H](Cc1c[nH]c2ccccc12)NC(=O)CNC(=O)[C@@H](CCCCN)NC(=O)[C@H]1CCCN1C(=O)[C@H](NC(C)=O)C(C)C)C(=O)N[C@H](CO)C(=O)N[C@H](Cc1ccc(O)cc1)C(=O)N[C@H](CO)C(N)=O` [compound 808, vpkGwrfhamsys] (Ac-[dV][dP][dK]G[dW][dR][dF][dH][dA][dM][dS][dY][dS]-NH2), with 2.5 nM.
The same measure, in the same setting: then `CCCCCCCCCCCCCCCCCC(=O)N[C@@H](Cc1c[nH]cn1)C(=O)N[C@H](Cc1ccccc1)C(=O)N[C@@H](CCCNC(=N)N)C(=O)N[C@@H](Cc1c[nH]c2ccccc12)C(N)=O` [compound 820, (Stearyl) HfRW], with 1.3 nM.
The same measure, in the same setting: then `CC(C)[C@@H](N)C(=O)N1CCC[C@@H]1C(=O)N[C@H](CCCCN)C(=O)NCC(=O)N[C@H](Cc1c[nH]c2ccccc12)C(=O)N[C@H](CCCNC(=N)N)C(=O)N[C@H](Cc1ccccc1)C(=O)N[C@H](Cc1c[nH]cn1)C(=O)NCCCc1ccccc1` [compound 847, vpkGwrfh] (H-[dV][dP][dK]G[dW][dR][dF][dH]-{NH(CH2)3Ph}), with 104 ± 72 nM.
`CSCC[C@@H](NC(=O)[C@@H](CCC(=O)O)NC(=O)[C@@H](Cc1c[nH]cn1)NC(=O)[C@@H](Cc1ccccc1)NC(=O)[C@@H](CCCNC(=N)N)NC(=O)[C@@H](Cc1c[nH]c2ccccc12)NC(=O)CNC(=O)[C@@H](CCCN)NC(=O)[C@H]1CCCN1C(=O)[C@H](NC(C)=O)C(C)C)C(=O)N[C@H](CO)C(=O)N[C@H](Cc1ccc(O)cc1)C(=O)N[C@H](CO)C(N)=O` [compound 857, vp(D-Ornithine)Gwrfhemsys]: affinity was put at a Ki of 3 nM.
Still for that read-out and setting: the value for `CCCC[C@@H](NC(=O)[C@H]1CCCN1C(=O)[C@H](NC(C)=O)C(C)C)C(=O)NCC(=O)N[C@H](Cc1c[nH]c2ccccc12)C(=O)N[C@H](CCCNC(=N)N)C(=O)N[C@H](Cc1ccccc1)C(=O)N[C@H](Cc1c[nH]cn1)C(=O)N[C@H](CCC(=O)O)C(=O)N[C@H](CCSC)C(=O)N[C@H](CO)C(=O)N[C@H](Cc1ccc(O)cc1)C(=O)N[C@H](CO)C(N)=O` [compound 858, vp(D-Norleucine)Gwrfhemsys] (Ac-[dV][dP][dNle]G[dW][dR][dF][dH][dE][dM][dS][dY][dS]-NH2) was 18 nM.
On the same count and under the same terms, the value for `CSCC[C@@H](NC(=O)[C@@H](CCC(=O)O)NC(=O)[C@@H](Cc1c[nH]cn1)NC(=O)[C@@H](Cc1ccccc1)NC(=O)[C@@H](CCCNC(=N)N)NC(=O)[C@@H](Cc1csc2ccccc12)NC(=O)CNC(=O)[C@@H](CCCCN)NC(=O)[C@H]1CCCN1C(=O)[C@H](NC(C)=O)C(C)C)C(=O)N[C@H](CO)C(=O)N[C@H](Cc1ccc(O)cc1)C(=O)N[C@H](CO)C(N)=O` [compound 859, vpkG(3-benzothienyl-D-Alanine)rfhemsys] (Ac-[dV][dP][dK]G[dBta][dR][dF][dH][dE][dM][dS][dY][dS]-NH2) was 206 nM.
On the same count and under the same terms, then `CSCC[C@@H](NC(=O)[C@@H](CCC(=O)O)NC(=O)[C@@H](Cc1c[nH]cn1)NC(=O)[C@@H](Cc1ccccc1)NC(=O)[C@@H](CCCNC(=N)N)NC(=O)[C@@H](Cc1c[nH]c2ccc(O)cc12)NC(=O)CNC(=O)[C@@H](CCCCN)NC(=O)[C@H]1CCCN1C(=O)[C@H](NC(C)=O)C(C)C)C(=O)N[C@H](CO)C(=O)N[C@H](Cc1ccc(O)cc1)C(=O)N[C@H](CO)C(N)=O` [compound 860, vpkG(5-hydroxy-D-Trp)rfhemsys], with 96 nM; and `COc1ccc2[nH]cc(C[C@@H](NC(=O)CNC(=O)[C@@H](CCCCN)NC(=O)[C@H]3CCCN3C(=O)[C@H](NC(C)=O)C(C)C)C(=O)N[C@H](CCCNC(=N)N)C(=O)N[C@H](Cc3ccccc3)C(=O)N[C@H](Cc3c[nH]cn3)C(=O)N[C@H](CCC(=O)O)C(=O)N[C@H](CCSC)C(=O)N[C@H](CO)C(=O)N[C@H](Cc3ccc(O)cc3)C(=O)N[C@H](CO)C(N)=O)c2c1` [compound 861, vpkG(5-methoxy-D-Trp)rfhemsys], with 75 nM.
For the compound `CSCC[C@@H](NC(=O)[C@@H](CCC(=O)O)NC(=O)[C@@H](Cc1c[nH]cn1)NC(=O)[C@@H](Cc1ccccc1)NC(=O)[C@@H](Cc1c[nH]cn1)NC(=O)[C@@H](Cc1c[nH]c2ccccc12)NC(=O)CNC(=O)[C@@H](CCCCN)NC(=O)[C@H]1CCCN1C(=O)[C@H](NC(C)=O)C(C)C)C(=O)N[C@H](CO)C(=O)N[C@H](Cc1ccc(O)cc1)C(=O)N[C@H](CO)C(N)=O` [compound 865, vpkGwhfhemsys] (Ac-[dV][dP][dK]G[dW][dH][dF][dH][dE][dM][dS][dY][dS]-NH2), the Ki (as a rule, the dissociation constant of the complex between target and ligand, obtained from inhibition or displacement) turned out to be 2300 nM.
Same read-out and setting: then `CSCC[C@@H](NC(=O)[C@@H](CCC(=O)O)NC(=O)[C@@H](Cc1c[nH]cn1)NC(=O)[C@@H](Cc1cccnc1)NC(=O)[C@@H](CCCNC(=N)N)NC(=O)[C@@H](Cc1c[nH]c2ccccc12)NC(=O)CNC(=O)[C@@H](CCCCN)NC(=O)[C@H]1CCCN1C(=O)[C@H](NC(C)=O)C(C)C)C(=O)N[C@H](CO)C(=O)N[C@H](Cc1ccc(O)cc1)C(=O)N[C@H](CO)C(N)=O` [compound 867, vpkGwr(3-pyridyl-D-Alanine)hemsys] (Ac-[dV][dP][dK]G[dW][dR][d3Pal][dH][dE][dM][dS][dY][dS]-NH2), with 480 nM; and `CSCC[C@@H](NC(=O)[C@@H](CCC(=O)O)NC(=O)[C@@H](Cc1c[nH]cn1)NC(=O)[C@@H](Cc1cccs1)NC(=O)[C@@H](CCCNC(=N)N)NC(=O)[C@@H](Cc1c[nH]c2ccccc12)NC(=O)CNC(=O)[C@@H](CCCCN)NC(=O)[C@H]1CCCN1C(=O)[C@H](NC(C)=O)C(C)C)C(=O)N[C@H](CO)C(=O)N[C@H](Cc1ccc(O)cc1)C(=O)N[C@H](CO)C(N)=O` [compound 868, vpkGwr(2-thienyl-D-Alanine)hemsys] (Ac-[dV][dP][dK]G[dW][dR][d2Thi][dH][dE][dM][dS][dY][dS]-NH2), with 5.4 nM; and `CSCC[C@@H](NC(=O)[C@@H](CCC(=O)O)NC(=O)[C@@H](Cc1c[nH]cn1)NC(=O)[C@@H](Cc1ccc([N+](=O)[O-])cc1)NC(=O)[C@@H](CCCNC(=N)N)NC(=O)[C@@H](Cc1c[nH]c2ccccc12)NC(=O)CNC(=O)[C@@H](CCCCN)NC(=O)[C@H]1CCCN1C(=O)[C@H](NC(C)=O)C(C)C)C(=O)N[C@H](CO)C(=O)N[C@H](Cc1ccc(O)cc1)C(=O)N[C@H](CO)C(N)=O` [compound 871, vpkGwr(4-Nitro-D-Phe)hemsys], with 324 nM.
Still for that read-out and setting: the value for `CSCC[C@@H](NC(=O)[C@@H](CCC(=O)O)NC(=O)[C@@H](Cc1c[nH]c2ccccc12)NC(=O)[C@@H](Cc1ccccc1)NC(=O)[C@@H](CCCNC(=N)N)NC(=O)[C@@H](Cc1c[nH]c2ccccc12)NC(=O)CNC(=O)[C@@H](CCCCN)NC(=O)[C@H]1CCCN1C(=O)[C@H](NC(C)=O)C(C)C)C(=O)N[C@H](CO)C(=O)N[C@H](Cc1ccc(O)cc1)C(=O)N[C@H](CO)C(N)=O` [compound 873, vpkGwrfwemsys] (Ac-[dV][dP][dK]G[dW][dR][dF][dW][dE][dM][dS][dY][dS]-NH2) was 1900 nM; that for `CSCC[C@@H](NC(=O)[C@@H](CC(=O)O)NC(=O)[C@@H](Cc1c[nH]cn1)NC(=O)[C@@H](Cc1ccccc1)NC(=O)[C@@H](CCCNC(=N)N)NC(=O)[C@@H](Cc1c[nH]c2ccccc12)NC(=O)CNC(=O)[C@@H](CCCCN)NC(=O)[C@H]1CCCN1C(=O)[C@H](NC(C)=O)C(C)C)C(=O)N[C@H](CO)C(=O)N[C@H](Cc1ccc(O)cc1)C(=O)N[C@H](CO)C(N)=O` [compound 875, vpkGwrfhdmsys] (Ac-[dV][dP][dK]G[dW][dR][dF][dH][dD][dM][dS][dY][dS]-NH2) was 400 nM; that for `CSCC[C@@](C)(NC(=O)[C@@H](CCC(=O)O)NC(=O)[C@@H](Cc1c[nH]cn1)NC(=O)[C@@H](Cc1ccccc1)NC(=O)[C@@H](CCCNC(=N)N)NC(=O)[C@@H](Cc1c[nH]c2ccccc12)NC(=O)CNC(=O)[C@@H](CCCCN)NC(=O)[C@H]1CCCN1C(=O)[C@H](NC(C)=O)C(C)C)C(=O)N[C@H](CO)C(=O)N[C@H](Cc1ccc(O)cc1)C(=O)N[C@H](CO)C(N)=O` [compound 877, vpkGwrfhe(α-methyl-D-Met)sys] was 282 nM.
On the same count and under the same terms, then `CC(=O)N[C@@H](C(=O)N1CCC[C@@H]1C(=O)N[C@H](CCCCN)C(=O)NCC(=O)N[C@H](Cc1c[nH]c2ccccc12)C(=O)N[C@H](CCCNC(=N)N)C(=O)N[C@H](Cc1ccccc1)C(=O)N[C@H](Cc1c[nH]cn1)C(=O)N[C@H](CCC(=O)O)C(=O)N[C@H](CCCCN)C(=O)N[C@H](CO)C(=O)N[C@H](Cc1ccc(O)cc1)C(=O)N[C@H](CO)C(N)=O)C(C)C` [compound 879, vpkGwrfheksys] (Ac-[dV][dP][dK]G[dW][dR][dF][dH][dE][dK][dS][dY][dS]-NH2), with 832 nM.

Staying with this test, now noted: relative to the unmodified tetrapeptide.
As to `CCCCCCCCCCCCCCCCCC(=O)N[C@@H](Cc1c[nH]cn1)C(=O)N[C@H](Cc1ccccc1)C(=O)N[C@@H](CCCNC(=N)N)C(=O)N[C@@H](Cc1c[nH]c2ccccc12)C(N)=O` [compound 820, (Stearyl) HfRW], the “improvement of binding to MC1R by stearyl addition to the core tetrapeptide” value was found to be 80 fold.
For the compound `CCCCCCCCCCCCCCCCCC(=O)NCCCCCCNC(=O)[C@@H](Cc1c[nH]cn1)NC(=O)[C@H](Cc1ccccc1)NC(=O)[C@@H](CCCNC(=N)N)NC(=O)[C@@H](Cc1c[nH]c2ccccc12)NC(C)=O` [compound 882, wrFh] (Ac-[dW][dR]F[dH]-X1), the “improvement of binding to MC1R by stearyl addition to the core tetrapeptide” value is over 250 fold.
